Measured values taken from patent US11136292B2, “Plant growth regulator compounds” (SYNGENTA PARTICIPATIONS AG, priority 2016, dated 2021).
Like-named read-outs stand apart in the source and are kept apart here.

System: NK Falkone 2015 corn seeds
Experiment: Corn seed germination under cold stress (Example B1)
Type: in vivo
Conditions: Zea mays, cold stress 15° C.; for change in vivo at 2 µM: Rate 2 μM; for change in vivo at 10 µM: Rate 10 μM; for change in vivo at 50 µM: Rate 50 μM; for change in vivo at 250 µM: Rate 250 μM
Protocol: The effect of compounds of formula (I) on the germination of NK Falkone 2015 corn seeds under cold stress was evaluated as follows. NK Falkone corn seeds were sorted by size using 2 sieves, one excluding very big seeds and the other with round holes of 8 to 9 mm diameter. The seeds retained by the latter sieve were used for the germination test. The corn seeds were placed in 24 well plates (each plate was considered as one experimental unit or replicate). Germination was initiated by the addition of 250 μl of distilled water containing 0.5% DMSO per well as a means for compound solubilization. 8 replicates (ie, 8 plates) were used for each treatment characterization. Plates were sealed using seal foil (Polyolefin Art. Nr. 900320) from HJ-BIOANALYTIK. All plates were placed horizontally on trolleys in a climatic chamber at 15° C. The experiment was laid out in a completely randomized design in climatic chamber with 75% Relative Humidity. Foils were pierced, one hole per well using a syringe after 72 hours for experiments performed at 15° C.
Germination was followed over time by taking photographs at different time points. Image analysis was performed automatically with a macro which was developed using the Image J software. A dynamic analysis of germination was carried out by fitting a logistic curve. Three parameters were calculated from the logistic curve: the T50; the slope and the plateau. All three parameters have a high agronomical relevance and are key requirements to ensure a good early crop-establishment. All the values are expressed as percentages compared to an untreated control. All the three parameters are calculated considering 8 replicates and the kinetic parameters are separately determined for each germination curve. Data in bold indicate germination enhancing statistically significant differences between treated seeds and untreated control (p<0.05). The T50 corresponds to the time needed for half of the seed population to germinate. Higher negative %-values indicate faster germination. The slope indicates how synchronous the germination of the seed population is. Positive values indicate steeper curve; the steeper the curve, the better and more uniform the germination is.

[1] = slope of logistic germination curve, read-out: Slope (% vs control)
[2] = time for half of seeds to germinate, control T50 = 110 hours, read-out: T50 (% vs control)

Row | SMILES | change in vivo at 2 µM [1] [%] | change in vivo at 2 µM [2] [%] | change in vivo at 10 µM [1] [%] | change in vivo at 10 µM [2] [%] | change in vivo at 50 µM [1] [%] | change in vivo at 50 µM [2] [%] | change in vivo at 250 µM [1] [%] | change in vivo at 250 µM [2] [%]
1 | CCOC(=O)/C(=C/OC1OC(=O)C(C)=C1C)C1COc2ccccc21 (stereo not shown) [Compound I-95] | -2 | 1.6 | -13.9 | 1.6 | 2.7 | 0.6 | 81.5 | -6.7
2 | CCOC(=O)/C(=C/OC1C=C(C)C(=O)O1)C1CCOc2ccccc21 (stereo not shown) [Compound I-90] | -10 | 3.2 | -0.32 | 2.8 | 4.6 | 0.45 | 83.6 | -6.7
3 | CC1=CC(O/C=C2/C(=O)OC3c4ccccc4CC23)OC1=O (stereo not shown) [Prior art 1] | -0.7 | -1.5 | -11.3 | -0.1 | 6.2 | -1.85 | 36.3 | -3.4
4 | CC1=C(C)C(O/C=C2/C(=O)OC3c4ccccc4CC23)OC1=O (stereo not shown) [Prior art 2] | -1.3 | -1.5 | 1.4 | 1.7 | 9.6 | -1.6 | 15.8 | -2.1
5 | CCOC(=O)/C(=C/OC1OC(=O)C(C)=C1C)C1CCc2ccc(C(F)(F)F)cc21 (stereo not shown) [Compound I-73] | -1.1 | -3.5 | 14.2 | -6.3 | 57.8 | -7.8 | 54.1 | -9.2
6 | CCOC(=O)/C(=C/OC1C=C(C)C(=O)O1)C1CCc2c(C)cccc21 (stereo not shown) [Compound I-68] | 23.4 | -1.2 | 3.8 | -0.6 | 44.7 | -5.7 | 113 | -6.8
7 | CC1=CC(O/C=C2/C(=O)OC3Cc4ccccc4C23)OC1=O (stereo not shown) [Prior art 3] | -0.7 | 1.6 | 2.2 | 0 | 4 | -0.8 | 14.1 | -0.5
8 | CCOC(=O)/C(=C/OC1OC(=O)C(C)=C1C)C1CCCc2ccccc21 (stereo not shown) [Compound I-75] | 4.9 | -3.5 | 5.6 | -2.6 | 58.4 | -6.5 | 44.2 | -5
9 | COC(=O)/C(=C/OC1C=C(C)C(=O)O1)C1CCc2ccccc21 (stereo not shown) [Compound I-10] | 8.2 | -0.9 | 10.7 | -0.8 | 30.3 | -3.3 | 82.5 | -7.4
10 | CCOC(=O)/C(=C/OC1OC(=O)C(C)=C1C)C1CCOc2ccccc21 (stereo not shown) [Compound I-91] | -15.3 | 2.5 | -5.4 | 2.7 | 18.8 | -1.5 | 67.4 | -6.1
11 | CNC(=O)/C(=C/OC1C=C(C)C(=O)N1c1cc(C(F)(F)F)cc(C(F)(F)F)c1)C1CCc2ccccc21 (stereo not shown) [Compound I-55-1] | -8.1 | 1.7 | 3.8 | -1.4 | 61.1 | -6.8 | 89.8 | -10.6
12 | CCOC(=O)/C(=C/OC1C=C(C)C(=O)O1)C1CCC[C@@]2(C)CCC12 (stereo partly shown) [Compound I-86] | 17.1 | 0.2 | 20.2 | -2.7 | 138 | -9.7 | 150 | -11.2
13 | CCOC(=O)/C(=C/OC1OC(=O)C(C)=C1C)C1CCc2ccccc21 (stereo not shown) [Compound I-2] | -11.8 | 2.3 | 18.1 | -3 | 47 | -6.2 | 121 | -10.1
14 | COC(=O)/C(=C/OC1C=C(C)C(=O)O1)c1ccccc1 (stereo not shown) [Prior art 4] | -7.7 | 1.2 | 14.9 | -3.4 | -11.4 | 2.4 | 4.1 | 0.1
15 | CCOC(=O)/C(=C/OC1C=C(C)C(=O)O1)C1CCc2cc3c(cc21)OCO3 (stereo not shown) [Compound I-66] | 22.6 | -5.2 | 2.9 | -2.9 | 34.5 | -5.1 | 31.6 | -5.8
16 | CCOC(=O)/C(=C/OC1C=C(C)C(=O)O1)C1CCc2c1cccc2C(F)(F)F (stereo not shown) [Compound I-70] | 9 | -2.5 | 18.4 | -0.2 | 87.9 | -6.8 | 115 | -8.6
17 | CNC(=O)/C(=C/OC1C=C(C)C(=O)O1)C1CCc2ccccc21 (stereo not shown) [Compound I-37-1] | 10.8 | -1.3 | -15.7 | -2.5 | 5.2 | -2.6 | 51.7 | -4.6
18 | CCOC(=O)/C(=C/OC1C=C(C)C(=O)N1c1cc(C(F)(F)F)cc(C(F)(F)F)c1)C1CCc2ccccc21 (stereo not shown) [Compound I-7] | 63.9 | -3.4 | 69.8 | -3.5 | 78.8 | -6.6 | 11.3 | -1.8
19 | CCOC(=O)/C(=C/OC1OC(=O)C(C)=C1C)C1CCc2cc(OC)c(OC)cc21 (stereo not shown) [Compound I-65] | 1 | -0.9 | 18.8 | -3.1 | 23 | -2.6 | 123 | -12.6
20 | COC(=O)/C(=C/OC1OC(=O)C(C)=C1C)C1CCc2ccccc21 (stereo not shown) [Compound I-11] | 11.4 | -1 | 7.4 | 0.2 | 20.1 | -5.1 | 89.6 | -6.9
21 | CCOC(=O)/C(=C/OC1C=C(C)C(=O)O1)C1CCc2cc(OC)c(OC)cc21 (stereo not shown) [Compound I-64] | 1.1 | -1.4 | -1.6 | -3.2 | 27.9 | -4.6 | 83.8 | -10.7
22 | CCOC(=O)/C(=C/OC1C=C(C)C(=O)O1)C1CCc2ccccc21 (stereo not shown) [Compound I-1] | 8.1 | -0.5 | 10 | 1.6 | 27.9 | -2.8 | 142 | -7.2
23 | CCOC(=O)/C(=C/OC1OC(=O)C(C)=C1C)C1CCc2ccsc21 (stereo not shown) [Compound I-83] | 6.5 | -3 | 34.1 | -2.2 | 32.6 | -4.8 | 157 | -8.6
